From PubChem BioAssay (NCI) come the findings set out here.

What all share (experiment): NCI-60 cell line screen, 48 h
Experiment [1] relates to SF-539 CNS.
Experiment [2] deals with LOX IMVI melanoma.
In experiment [3] the test system is SF-295 CNS.
Experiment [4] deals with T-47D breast.
Experiment [5] has as its system CCRF-CEM leukemia.
Experiment [6] concerns OVCAR-5 ovarian.
Experiment [7] concerns RPMI-8226 leukemia.
The subject of experiment [8] is BT-549 breast.
Experiment [9] concerns HT29 colon.
In experiment [10] the test system is SR leukemia.

Structures are written as SMILES. “And” between values parts separate entries of the source, which are not always exact repeats. Equal values may be shown once.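 In this assay, cells in 96-well plates receive the compound at five concentrations for 48 hours. Endpoints are linearly interpolated between the surrounding concentrations. At the GI50, growth is halved. TGI: concentration producing complete growth inhibition.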

As to `C/C=C1/CC(C)C(C)(O)C(=O)OCC2C(O)CN3CCC(OC1=O)C23` (centres undefined), the TGI in experiment [1], in experiment [2], in experiment [3], in experiment [4], in experiment [5] and in experiment [6] was more than 100 µM each time. Besides, the TGI in experiment [7], in experiment [8], in experiment [9] and in experiment [10] was more than 100 µM throughout.

Consider `CCCCCC/C=C\CCCCCCCCCC1=C(CN2CCN(C)CC2)C(=O)C=C(OC)C1=O`, for which the TGI in experiment [1] was 40.1 µM; in experiment [2], 9.79 µM; in experiment [3], 25.3 µM; in experiment [4], 4.81 µM; in experiment [5], 1.95 µM; in experiment [6] it was 28.8 µM. For the same compound, the TGI in experiment [7] was determined as 3.9 µM; in [8], 15.5 µM; in [9] it was 23.9 µM; in experiment [10] it was 1.81 µM.

`CC(=O)C1=C(O)C=C2Oc3c(C(=O)/C=C/c4cc(Cl)cc(Cl)c4)c(O)c(C)c(O)c3[C@]2(C)C1=O`: the GI50 in experiment [1] was 552 nM; in experiment [2], 512 nM; in [3], 360 nM; in [4], 435 nM; in experiment [5] it was 498 nM; in [6], 720 nM. Besides, the GI50 is 0.452 µM in experiment [7], 395 nM in [8], 470 nM in experiment [9] and 459 nM in experiment [10]. Also, the TGI came to 2.26 µM in experiment [1]; 1.79 µM in [2]; 0.887 µM in [3]; 1.36 µM in experiment [4]; 2.65 µM in experiment [5]; 8.57 µM in experiment [6]. Moreover, the TGI was found to be 1.14 µM in experiment [7], 0.961 µM in experiment [8], 1.56 µM in experiment [9] and 4.35 µM in experiment [10].

As to `CCN(Cc1cccc(Cl)c1)c1ccc(CO)c(Cl)c1`, the GI50 in [1] was 15900 nM; in experiment [2], 9110 nM; in [3], 1120 nM; in [4] it was 205 nM; in experiment [5] it was 11900 nM; in [6], 222 nM. The GI50 in experiment [7] is 4.35 µM; in experiment [8], 11500 nM; in [9], 3610 nM; in experiment [10] it was 16900 nM. For the same compound, the TGI in [1] amounted to 30.8 µM; in [2] it was 22.3 µM; in [3] it was 13.8 µM; in [4], 1.14 µM; in experiment [5] it was 35.4 µM; in experiment [6] it was 1.25 µM. Also, the TGI in [7] amounted to 28.1 µM; in experiment [8] it was 24.3 µM; in experiment [9] it was 14.6 µM; in experiment [10] it was 39.9 µM.

Take `C#CCN(c1ccc(C(=O)N[C@@H](CCC(=O)N[C@H](CCC(=O)O)C(=O)O)C(=O)O)cc1)C1CCc2cc3nc(CO)[nH]c(=O)c3cc21` (some centres undefined): the GI50 was 4380 nM in [1]; 5120 nM in experiment [2]; 5010 nM in experiment [3]; more than 67000 nM in experiment [4]; more than 36300 nM in experiment [5]; more than 100000 nM in experiment [6]. Further, the GI50 in experiment [7] was 88 µM; in [8] it was 58000 nM; in [9], more than 100000 nM; in experiment [10], 7050 nM. For the same compound, the TGI was more than 100 µM in experiment [1]; more than 100 µM in experiment [2]; more than 72.3 µM in experiment [3]; more than 100 µM in experiment [4]; more than 100 µM in experiment [5]; more than 100 µM in experiment [6]. Also, the TGI in experiment [7], in experiment [8], in [9] and in [10] was more than 100 µM throughout.

With `O=C1/C(=C/c2ccc(Cl)cc2)CNC/C1=C\c1ccc(Cl)cc1`, the TGI is 3.2 µM and 4.11 µM in [1]; 4.02 µM in [2]; 4.59 µM and 5.8 µM in [3]; 36.1 µM in experiment [4]; 10.3 µM and > 100 µM in experiment [5]; 13.4 µM in experiment [6]. The TGI in experiment [7] was 0.722 µM; in experiment [8] it was 8.41 µM; in [9], 0.697 µM and 3.38 µM; in experiment [10], more than 100 µM. In addition, the GI50 in [3] is 532 nM and 2260 nM; in experiment [5] it was 596 nM and 1320 nM; in experiment [9] it was 254 nM and 1280 nM.

Consider `O=[N+]([O-])c1cc([N+](=O)[O-])c(Nn2c3ccccc3c3ccccc32)c([N+](=O)[O-])c1`, for which the GI50 in experiment [1] was 335 nM; in experiment [2] it was 339 nM; in [4], 278 nM; in experiment [5], 355 nM; in experiment [6], 338 nM; in experiment [8], 278 nM. The GI50 in experiment [9] is 323 nM; in [10], 232 nM. For the same compound, the TGI was 15.8 µM and 5.1 µM in experiment [1]; 11.7 µM in experiment [2]; 0.79 µM in experiment [3]; more than 100 µM in [5]; 26.7 µM and 13.5 µM in experiment [6]; 0.56 µM in experiment [7]. Further, the TGI in [8] was 7.32 µM and 1.23 µM; in experiment [9], 8.43 µM and 3.43 µM; in experiment [10], more than 100 µM.

Turning to `CCNC(=O)Oc1ccc(/C(=C(/C)Cc2ccc(OC)cc2)c2ccc(OCCN(CC)CC)cc2)cc1`, the GI50 in experiment [1] is 1610 nM; in experiment [2], 1660 nM; in experiment [3], 1660 nM; in experiment [4], 1300 nM; in [5] it was 2660 nM; in experiment [6], 3420 nM. For the same compound, the GI50 is 1.99 µM in experiment [7], 1730 nM in [8], 2020 nM in [9] and 1760 nM in experiment [10]. Moreover, the TGI in experiment [1] was determined as 3.25 µM; in experiment [2] it was 3.22 µM; in experiment [3] it was 3.25 µM; in experiment [4], 4.23 µM; in experiment [5], 7.96 µM; in [6], 12.8 µM. In addition, the TGI turned out to be 4.5 µM in experiment [7], 4.16 µM in [8], 3.96 µM in experiment [9] and 5.96 µM in [10].

In the case of `CC(=O)[C@H]1CCC/C=C/[C@@H]2C[C@H](O)C[C@H]2[C@H](O)/C=C/C(=O)O1`, the GI50 is 1010 nM in experiment [1]; 212 nM in experiment [2]; 4330 nM in experiment [3]; 1170 nM in [4]; 395 nM in experiment [5]; 2100 nM in experiment [6]. For the same compound, the GI50 is 0.36 µM in experiment [7], 657 nM in experiment [8], 253 nM in [9] and 313 nM in [10]. Also, the TGI was more than 100 µM in [1]; 0.633 µM in [2]; more than 100 µM in experiment [3]; 3.63 µM in experiment [4]; more than 62.7 µM in [5]; more than 62.6 µM in [6]. Also, the results for the TGI in experiment [8], in [9] and in experiment [10] were more than 100 µM, 1.44 µM and 86.9 µM, respectively.

For the compound `CSc1nc2c(c(=O)n1C)CN(C1CCCCC1)C(=O)C(c1ccccc1)N2` (centres undefined), the GI50 in experiment [1] is 51700 nM; in [2], 17100 nM; in experiment [3], 35300 nM; in experiment [4] it was 29300 nM; in experiment [5] it was 11300 nM; in experiment [6], more than 100000 nM. For the same compound, the GI50 was 11.3 µM in experiment [7], 13200 nM in experiment [8], 33300 nM in experiment [9] and 6380 nM in [10]. Moreover, the TGI in experiment [1], in [2], in [3], in experiment [4], in experiment [5] and in experiment [6] was more than 100 µM each time. Also, the TGI in [7] was more than 100 µM; in [8], 49.4 µM; in experiment [9], more than 100 µM; in experiment [10], more than 100 µM.

Turning to `CCN(CC)CCCC(C)N/C(=C1\C(=O)NC(=O)\C1=C(/NC(C)CCCN(CC)CC)c1cccc(OC)c1)c1cccc(OC)c1` (centres undefined), the GI50 was 791 nM in [1]; 676 nM in experiment [2]; 813 nM in [3]; 1300 nM in experiment [4]; 816 nM in [5]; 1160 nM in [6]. Also, the GI50 is 0.949 µM in experiment [7], 1310 nM in experiment [8], 372 nM in experiment [9] and 444 nM in experiment [10]. In addition, the TGI in experiment [1] was 1.51 µM; in [2], 1.49 µM; in experiment [3], 1.78 µM; in experiment [4], 3.7 µM; in experiment [5] it was 2.89 µM; in [6], 3.42 µM. The TGI in experiment [7] was determined as 2.29 µM; in [8], 3.82 µM; in experiment [9], 2.01 µM; in experiment [10], 2.13 µM.

As to `CC(=O)NNc1nc(C)c(C(/C=C/c2ccccc2O)=N/N=C(N)N)s1`, the TGI in [1], in experiment [2], in experiment [3], in [4], in [5] and in experiment [6] was more than 100 µM each time. In addition, the TGI in experiment [7], in experiment [8], in [9] and in experiment [10] was more than 100 µM each time.

Regarding `Nc1nc(/C=C\c2ccccc2)nc(N2CCN(c3ccccc3)CC2)n1`, the GI50 is 41100 nM in experiment [1]; 19000 nM in experiment [2]; 30000 nM in experiment [3]; 11600 nM in [4]; 37300 nM in experiment [5]; 58700 nM in experiment [6]. In addition, the GI50 is 25.9 µM in experiment [7], 45000 nM in experiment [8], 18000 nM in experiment [9] and 35800 nM in experiment [10]. The TGI in experiment [1] was more than 100 µM; in experiment [2], 40.6 µM; in experiment [3] it was more than 100 µM; in [4], 41.9 µM; in [5], more than 100 µM; in [6], more than 100 µM. In addition, the TGI in experiment [7] was more than 100 µM; in experiment [8], more than 100 µM; in [9], 41.8 µM; in [10], more than 100 µM.
